By IC50 is commonly meant the concentration that gives 50% inhibition.

Assay in all cases: actin-activated ATPase, PK/LDH-coupled NADH absorbance
Experiment [1] has as its target T1, PfMyoA (Plasmodium falciparum, UniProt Q8IDR3).
T1 sequence (Q8IDR3 1-818): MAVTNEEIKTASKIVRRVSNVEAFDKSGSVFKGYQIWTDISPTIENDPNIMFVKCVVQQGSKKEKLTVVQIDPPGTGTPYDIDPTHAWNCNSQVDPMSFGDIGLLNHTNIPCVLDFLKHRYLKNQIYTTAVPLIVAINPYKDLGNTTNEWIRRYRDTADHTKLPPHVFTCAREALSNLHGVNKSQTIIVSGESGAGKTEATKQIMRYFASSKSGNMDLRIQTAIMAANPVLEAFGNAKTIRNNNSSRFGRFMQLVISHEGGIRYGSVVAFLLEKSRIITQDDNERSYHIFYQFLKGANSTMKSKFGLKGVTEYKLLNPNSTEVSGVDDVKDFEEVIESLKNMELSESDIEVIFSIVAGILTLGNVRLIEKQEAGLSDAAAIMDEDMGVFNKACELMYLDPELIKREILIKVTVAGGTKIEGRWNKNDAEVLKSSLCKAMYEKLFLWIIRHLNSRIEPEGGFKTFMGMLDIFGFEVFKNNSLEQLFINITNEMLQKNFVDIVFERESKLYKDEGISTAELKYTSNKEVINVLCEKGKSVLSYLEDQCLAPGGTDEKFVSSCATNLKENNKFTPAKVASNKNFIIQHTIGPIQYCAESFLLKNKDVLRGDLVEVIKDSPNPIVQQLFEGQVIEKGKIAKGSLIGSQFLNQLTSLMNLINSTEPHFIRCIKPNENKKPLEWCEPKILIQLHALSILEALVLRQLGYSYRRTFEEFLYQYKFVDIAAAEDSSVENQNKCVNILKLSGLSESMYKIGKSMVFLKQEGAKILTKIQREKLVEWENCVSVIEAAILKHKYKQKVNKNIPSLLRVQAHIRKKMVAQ
T1 sequence (Q8IJM4 1-134 partner): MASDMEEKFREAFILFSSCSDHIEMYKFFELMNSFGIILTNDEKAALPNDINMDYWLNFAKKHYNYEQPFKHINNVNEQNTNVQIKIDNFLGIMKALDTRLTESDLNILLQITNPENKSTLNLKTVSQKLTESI
T1 sequence (Q8I4W8 1-204 partner): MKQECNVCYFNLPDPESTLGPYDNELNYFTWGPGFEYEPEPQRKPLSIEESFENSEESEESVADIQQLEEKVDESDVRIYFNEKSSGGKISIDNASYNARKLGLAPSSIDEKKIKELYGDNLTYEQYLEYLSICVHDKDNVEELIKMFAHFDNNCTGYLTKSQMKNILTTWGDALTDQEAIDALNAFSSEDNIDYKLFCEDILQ
Type of experiment: biochemical. The conditions noted are these: 2 mM ATP, bovine cardiac actin, 3 mM MgCl2, 5 mM KCl, pH 7.4, 2% DMSO; n = 5.

In experiment [2] the target is rabbit skeletal myosin. Type of experiment: biochemical, Oryctolagus cuniculus. Conditions: 2 mM ATP, 3 mM MgCl2, 5 mM KCl, pH 7.4, 2% DMSO, 100 nM myosin, n = 6.
In experiment [3] the target is chicken smooth muscle myosin (Gallus gallus, UniProt P10587). It is filed as biochemical. The conditions noted are these: 2 mM ATP, 3 mM MgCl2, 5 mM KCl, pH 7.4, 2% DMSO, 300 nM myosin, n = 2.
Chain of chicken smooth muscle myosin (P10587 2-1979): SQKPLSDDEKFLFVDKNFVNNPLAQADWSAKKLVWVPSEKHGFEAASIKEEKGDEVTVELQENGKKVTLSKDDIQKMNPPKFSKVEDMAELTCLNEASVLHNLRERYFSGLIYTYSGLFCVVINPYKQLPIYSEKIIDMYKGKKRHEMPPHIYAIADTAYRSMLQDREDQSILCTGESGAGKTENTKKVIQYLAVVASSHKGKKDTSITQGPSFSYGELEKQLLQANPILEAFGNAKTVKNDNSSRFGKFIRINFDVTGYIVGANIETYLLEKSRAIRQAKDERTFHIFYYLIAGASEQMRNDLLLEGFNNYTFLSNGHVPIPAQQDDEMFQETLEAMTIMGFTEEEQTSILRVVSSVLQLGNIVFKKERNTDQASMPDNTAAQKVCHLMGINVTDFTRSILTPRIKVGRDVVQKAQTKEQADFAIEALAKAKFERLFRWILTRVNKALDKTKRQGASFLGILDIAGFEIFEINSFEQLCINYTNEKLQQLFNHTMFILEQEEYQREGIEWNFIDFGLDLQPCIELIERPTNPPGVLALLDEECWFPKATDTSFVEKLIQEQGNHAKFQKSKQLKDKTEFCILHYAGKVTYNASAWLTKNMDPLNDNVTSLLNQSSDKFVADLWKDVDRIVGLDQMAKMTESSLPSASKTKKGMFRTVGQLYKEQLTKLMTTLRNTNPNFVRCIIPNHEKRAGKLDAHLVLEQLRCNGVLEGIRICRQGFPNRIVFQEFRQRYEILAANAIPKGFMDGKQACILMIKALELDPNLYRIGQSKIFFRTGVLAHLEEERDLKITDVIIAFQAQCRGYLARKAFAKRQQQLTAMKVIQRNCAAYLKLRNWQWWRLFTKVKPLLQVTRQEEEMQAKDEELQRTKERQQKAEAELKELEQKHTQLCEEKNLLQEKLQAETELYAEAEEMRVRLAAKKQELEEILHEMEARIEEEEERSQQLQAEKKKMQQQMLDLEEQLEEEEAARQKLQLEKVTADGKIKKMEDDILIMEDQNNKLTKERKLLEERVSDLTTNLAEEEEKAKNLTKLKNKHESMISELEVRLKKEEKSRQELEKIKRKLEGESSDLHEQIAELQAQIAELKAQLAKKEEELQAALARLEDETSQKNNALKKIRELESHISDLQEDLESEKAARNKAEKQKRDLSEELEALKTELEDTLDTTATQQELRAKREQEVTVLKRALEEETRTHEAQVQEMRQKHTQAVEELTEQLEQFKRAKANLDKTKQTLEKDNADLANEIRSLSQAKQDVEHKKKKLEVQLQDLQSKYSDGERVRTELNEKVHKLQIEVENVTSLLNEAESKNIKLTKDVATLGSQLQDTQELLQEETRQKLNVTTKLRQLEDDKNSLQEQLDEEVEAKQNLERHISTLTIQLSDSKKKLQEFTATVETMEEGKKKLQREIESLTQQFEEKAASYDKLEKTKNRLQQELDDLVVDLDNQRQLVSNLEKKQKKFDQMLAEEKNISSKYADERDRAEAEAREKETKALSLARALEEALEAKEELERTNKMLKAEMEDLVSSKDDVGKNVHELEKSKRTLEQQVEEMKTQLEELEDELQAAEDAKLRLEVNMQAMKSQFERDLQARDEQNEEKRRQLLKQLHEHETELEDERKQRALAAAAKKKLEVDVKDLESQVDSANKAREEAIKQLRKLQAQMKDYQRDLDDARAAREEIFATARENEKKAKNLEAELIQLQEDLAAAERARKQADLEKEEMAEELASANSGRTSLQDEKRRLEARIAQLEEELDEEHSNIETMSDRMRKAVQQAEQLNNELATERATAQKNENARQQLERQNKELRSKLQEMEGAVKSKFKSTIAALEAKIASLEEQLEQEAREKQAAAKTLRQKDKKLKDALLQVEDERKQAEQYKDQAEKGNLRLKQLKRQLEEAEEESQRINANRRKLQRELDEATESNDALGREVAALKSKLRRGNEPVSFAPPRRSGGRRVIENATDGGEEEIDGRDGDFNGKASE
Chain of chicken smooth muscle myosin (P02607 2-151 partner): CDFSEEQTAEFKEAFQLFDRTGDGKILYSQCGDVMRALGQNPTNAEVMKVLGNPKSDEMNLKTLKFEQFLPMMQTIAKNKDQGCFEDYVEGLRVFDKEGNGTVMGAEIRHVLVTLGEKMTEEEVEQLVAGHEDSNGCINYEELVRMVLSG
Chain of chicken smooth muscle myosin (P02612 2-172 partner): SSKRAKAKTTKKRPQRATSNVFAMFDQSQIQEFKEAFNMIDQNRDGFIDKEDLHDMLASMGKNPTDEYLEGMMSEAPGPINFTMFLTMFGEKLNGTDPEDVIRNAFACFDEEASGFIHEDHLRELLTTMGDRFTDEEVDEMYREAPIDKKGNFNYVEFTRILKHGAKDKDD
Experiment [4] has as its target bovine cardiac myosin (Bos taurus, UniProt Q9BE39). Type of experiment: biochemical. The conditions noted are these: 2 mM ATP, 3 mM MgCl2, 5 mM KCl, pH 7.4, 2% DMSO, 200 nM myosin, n = 3.

Where only a bound is given, the exact number is not on record here.

Chain of bovine cardiac myosin (Q9BE39 whole entry): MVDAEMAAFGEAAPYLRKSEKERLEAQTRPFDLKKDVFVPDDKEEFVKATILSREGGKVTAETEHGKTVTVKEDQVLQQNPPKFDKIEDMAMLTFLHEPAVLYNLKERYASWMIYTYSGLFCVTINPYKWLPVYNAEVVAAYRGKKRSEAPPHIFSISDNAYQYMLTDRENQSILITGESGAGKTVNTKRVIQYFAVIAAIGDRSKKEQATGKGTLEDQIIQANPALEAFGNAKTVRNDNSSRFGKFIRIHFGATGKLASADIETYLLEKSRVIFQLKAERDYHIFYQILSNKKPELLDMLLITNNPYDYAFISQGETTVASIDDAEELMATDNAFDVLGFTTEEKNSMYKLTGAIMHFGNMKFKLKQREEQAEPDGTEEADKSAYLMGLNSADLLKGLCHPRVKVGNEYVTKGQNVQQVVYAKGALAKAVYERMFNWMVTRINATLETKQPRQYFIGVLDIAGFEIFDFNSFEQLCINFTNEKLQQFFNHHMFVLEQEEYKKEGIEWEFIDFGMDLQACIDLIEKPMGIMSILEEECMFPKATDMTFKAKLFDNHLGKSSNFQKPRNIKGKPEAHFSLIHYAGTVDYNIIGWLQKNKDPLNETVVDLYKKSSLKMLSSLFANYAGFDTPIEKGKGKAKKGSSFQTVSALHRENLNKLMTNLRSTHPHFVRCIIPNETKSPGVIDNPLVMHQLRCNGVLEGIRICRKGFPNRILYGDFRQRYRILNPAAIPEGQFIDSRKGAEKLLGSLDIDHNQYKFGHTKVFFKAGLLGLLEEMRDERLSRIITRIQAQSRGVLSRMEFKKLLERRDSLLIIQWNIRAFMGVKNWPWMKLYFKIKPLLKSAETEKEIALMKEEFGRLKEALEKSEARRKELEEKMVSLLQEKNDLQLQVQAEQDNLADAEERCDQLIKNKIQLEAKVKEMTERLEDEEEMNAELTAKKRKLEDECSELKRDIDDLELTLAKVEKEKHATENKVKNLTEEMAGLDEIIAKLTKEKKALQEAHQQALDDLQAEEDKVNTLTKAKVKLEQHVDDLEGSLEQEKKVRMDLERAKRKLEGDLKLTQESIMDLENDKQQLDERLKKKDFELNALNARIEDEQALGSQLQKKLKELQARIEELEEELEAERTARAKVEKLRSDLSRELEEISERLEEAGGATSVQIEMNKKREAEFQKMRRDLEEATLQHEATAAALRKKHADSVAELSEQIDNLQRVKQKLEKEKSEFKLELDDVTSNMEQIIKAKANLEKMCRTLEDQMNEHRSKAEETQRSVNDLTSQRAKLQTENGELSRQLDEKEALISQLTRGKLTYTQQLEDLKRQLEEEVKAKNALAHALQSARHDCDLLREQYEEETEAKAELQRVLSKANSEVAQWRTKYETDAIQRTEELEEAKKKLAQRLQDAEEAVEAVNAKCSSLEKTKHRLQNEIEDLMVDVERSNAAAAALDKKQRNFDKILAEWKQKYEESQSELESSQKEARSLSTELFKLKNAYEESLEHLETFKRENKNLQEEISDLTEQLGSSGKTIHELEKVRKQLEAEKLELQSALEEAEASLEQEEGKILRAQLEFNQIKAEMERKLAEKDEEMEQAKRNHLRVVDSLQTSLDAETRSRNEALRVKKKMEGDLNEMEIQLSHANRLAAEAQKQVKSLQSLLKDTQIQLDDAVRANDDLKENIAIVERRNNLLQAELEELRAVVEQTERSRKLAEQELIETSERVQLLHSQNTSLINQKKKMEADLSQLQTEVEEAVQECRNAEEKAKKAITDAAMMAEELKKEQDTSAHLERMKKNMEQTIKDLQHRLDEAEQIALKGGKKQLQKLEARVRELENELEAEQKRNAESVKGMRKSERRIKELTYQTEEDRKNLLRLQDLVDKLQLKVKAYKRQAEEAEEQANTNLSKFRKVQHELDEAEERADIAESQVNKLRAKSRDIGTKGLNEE
Chain of bovine cardiac myosin (P85100 2-199 partner): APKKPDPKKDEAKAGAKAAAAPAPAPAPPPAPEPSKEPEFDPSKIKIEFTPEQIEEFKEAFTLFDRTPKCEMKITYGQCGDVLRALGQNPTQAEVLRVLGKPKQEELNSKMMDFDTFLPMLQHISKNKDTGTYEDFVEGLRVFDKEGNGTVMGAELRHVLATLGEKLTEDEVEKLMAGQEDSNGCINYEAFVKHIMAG
Chain of bovine cardiac myosin (Q3SZE5 2-166 partner): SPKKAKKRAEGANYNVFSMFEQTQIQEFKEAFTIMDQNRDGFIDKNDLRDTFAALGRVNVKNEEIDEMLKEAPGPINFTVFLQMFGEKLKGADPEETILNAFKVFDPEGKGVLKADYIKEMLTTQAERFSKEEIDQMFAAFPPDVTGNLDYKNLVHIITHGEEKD

For `COc1ccc(C2(NCc3c[nH]nc3-c3cccs3)CC2)cc1` [KNX-002], in experiment [1], the midpoint of inhibition, the IC50, lay at 400 ± 100 nM.

With KNX-115, the half-maximal inhibitory concentration (IC50) in experiment [2] is 1000 ± 400 nM; in experiment [3], over 50000 nM; in experiment [4] it was 10000 ± 6400 nM.

For the origin of these results see doi:10.1101/2022.09.09.507317v1 (biorxiv, 2022).
